# Laboratory results taken from patent US8778923B2, “GLP-1 receptor modulators” (Receptos, Inc., priority 2011, dated 2014).
# Molecular target: T1, GLP-1R (Homo sapiens, UniProt P43220)
# T1 construct: host or cells: CRE-bla CHO-K1
# Assay: EC20 GLP-1(9-36) PAM cAMP assay: dose response of compound in the presence of fixed concentration of GLP-1(9-36)
# Format: cell-based
# Conditions: GLP-1R CRE-bla CHO-K1 cells, compound dose response in presence of fixed concentration of GLP-1(9-36)
# Outline: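 Positive allosteric modulation read as cAMP rise: 12-point compound titration combined with a fixed EC20 level of GLP-1(9-36) on GLP-1R CHO-K1 cells, IBMX present, 30 min at 37 °C. Luminescent HitHunter signal converted to cAMP; nonlinear fit gave EC50 and Emax.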
# T1 sequence (P43220 24-463): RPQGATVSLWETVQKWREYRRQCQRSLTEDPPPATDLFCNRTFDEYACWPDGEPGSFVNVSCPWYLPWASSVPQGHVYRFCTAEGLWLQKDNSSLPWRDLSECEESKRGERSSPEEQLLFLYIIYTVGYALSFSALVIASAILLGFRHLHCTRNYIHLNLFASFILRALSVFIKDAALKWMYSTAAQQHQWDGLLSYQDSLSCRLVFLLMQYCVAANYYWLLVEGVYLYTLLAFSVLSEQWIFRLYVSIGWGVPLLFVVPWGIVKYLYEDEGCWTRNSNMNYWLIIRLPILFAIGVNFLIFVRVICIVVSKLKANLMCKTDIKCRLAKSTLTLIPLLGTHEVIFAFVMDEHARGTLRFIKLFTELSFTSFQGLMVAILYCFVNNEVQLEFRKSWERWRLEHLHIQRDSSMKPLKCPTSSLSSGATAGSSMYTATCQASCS
# T1 sequence (P01275 100-127 partner limits assumed): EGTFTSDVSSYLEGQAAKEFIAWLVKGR
row,EC50,SMILES
1,< 800 nM,CCCCCCCOc1ccc(-c2cnc(-c3ccc(C[C@H](NC(=O)c4ccc(C(C)C)cc4)C(=O)N[C@@H](CCCCN)C(=O)O)cc3)nc2)cc1 [Compound 310]
2,< 800 nM,CCCCCCCOc1ccc(-c2cnc(-c3ccc(C[C@H](NC(=O)c4ccc(C(C)(C)C)s4)C(=O)N[C@H](C)CC(=O)O)cc3)nc2)cc1 [Compound 345]
3,5000 to 10000 nM,CCCCCCCCCCCCCCCCOc1ccc(-c2cnc(-c3ccc(C[C@H](NC(=O)c4ccc(C(C)(C)C)s4)C(=O)O)cc3)nc2)cc1 [Compound 252]
4,< 800 nM,"CCCCCCCOc1ccc(-c2cnc(-c3ccc(C[C@H](NC(=O)c4ccc(C(C)(C)C)cc4)C(=O)NCCC(=O)O)cc3)nc2)cc1 [Compound 298, (S)-3-(2-(4-(tert-butyl)benzamido)-3-(4-(5-(4-(heptyloxy)phenyl)pyrimidin-2-yl)phenyl)propanamido)propanoic acid]"
